# Measured values taken from article PMC6379498, “Radiosynthesis and in vivo evaluation of ^11C-labeled BMS-193885 and its desmethyl analog as PET tracers for neuropeptide Y1 receptors” (EJNMMI Radiopharmacy and Chemistry, 2019).
# Assays:
# [1] = Biodistribution of radioactivity in mice after tracer injection; assay type: in vivo; details: for Radioactivity level, blood / Radioactivity level, brain / Radioactivity level, heart / Radioactivity level, kidney / Radioactivity level, liver / Radioactivity level, lung / Radioactivity level, muscle / Radioactivity level, pancreas / Radioactivity level, small intestine / Radioactivity level, spleen: mean±S.D. n=4
# Method: [^11C]1 (13 MBq/0.12 nmol) or [^11C]2 (15 MBq/0.36 nmol) was intravenously injected into mice (aged 7–8 weeks, weighing 33–38 g, n = 4). Mice were euthanized by cervical dislocation at 5, 15, 30, or 60 min post-injection.
# (§1) Blood samples were collected by heart puncture. Tissues were dissected and weighed. The radioactivity in samples was measured with an automatic gamma counter (Wizard 3′′ 1480, PerkinElmer, Waltham, MA, USA). The tissue uptake of radioactivity was expressed as the percentage of injected dose detected per gram of sample (%ID/g, tissue radioactivity/g tissue/injected radioactivity × 100).
# P-gp and BCRP = experiment: Effect of pretreatment with elacridar on tissue distribution of radioactivity; assay type: in vivo, mice; details: 30 min post-injection, elacridar 5 mg/kg 20-30 min before tracer, vs control
# Method: The effects of pretreatment with 1 (BMS-193885) or the ABC transporter-inhibitor elacridar (inhibiting drug efflux transporters, mainly P-gp and BCRP) on tissue distributions of radioactivity were investigated. [^11C]1 (7.1–14 MBq/0.079–0.23 nmol) or [^11C]2 (6.0 MBq/0.16 nmol) was intravenously injected into mice (aged 7–8 weeks, weighing 32–36 g, n = 4–8) 20–30 min after the administration of the solution of 1 (10 mg/kg body weight [b.w.]/0.1 mL water containing 20% Tween 80), elacridar (5 mg/kg b.w./0.1 mL water), or a control fluid (0.1 mL water). Mice were euthanized by cervical dislocation at 30 min post-injection.
# as §1
# [2] = Analysis of metabolites in mouse plasma (radio-HPLC); assay type: in vivo, mice
# Method: [^11C]1 (37–56 MBq/0.73–0.95 nmol) or [^11C]2 (46–61 MBq/1.1–1.5 nmol) was intravenously injected into mice (aged 7–9 weeks, weighing 33–43 g, n = 4). Mice were euthanized by cervical dislocation at 30 min post-injection. Blood samples taken by heart puncture were collected into heparinized syringes. Samples were centrifuged at 13,000×g (Model 5500, KUBOTA, Tokyo, Japan) for 3 min at 4 °C to obtain plasma (0.1–0.2 mL). Plasma samples were added to equivalent volumes of 1 mol/L ammonium acetate solution. Samples were directly loaded into the injector loop, and analyzed using the combination of column-switching HPLC and on-line solid-phase extraction as a modification of the previously described procedures (Chitneni et al. [2008]; Gillings [2009]; Greuter et al. [2005]; Hilton et al. [2000]; Kawamura et al. [2013]). HPLC analysis was performed using the radio-HPLC system for metabolite analysis mentioned in the ‘General’ section above, and also using a Cadenza HS-C18 column (3 μm mesh, 10 mm i.d. × 150 mm length; Imtakt, Kyoto, Japan) fitted with a Cadenza HS-C18 guard cartridge (3 μm mesh, 10 mm i.d. × 8 mm length; Imtakt). Elution was performed using a 0.1 mol/L ammonium acetate solution for 3 min after loading, a mixture of 90% acetonitrile solution and water (0:100 to 40:60, vol./vol.) from 3 to 4 min after loading, and then a mixture of 90% acetonitrile solution and water (40:60, vol./vol.) from 4 to 12 min after loading. The flow rate was 4 mL/min. The retention times of [^11C]1 and [^11C]2 were 10.0 and 10.5 min, respectively.
smiles,measurement,setting,value
COC(=O)C1=C(C)NC(C)=C(C(=O)OC)C1c1cccc(N[11C](=O)NCCCN2CCC(c3cccc(O)c3)CC2)c1 [[^11C]2],"Radioactivity level, blood",[1]; 5 min after i.v. injection,0.65±0.05 %ID/g
same,"Radioactivity level, blood",[1]; 15 min after i.v. injection,0.21±0.01 %ID/g
same,"Radioactivity level, blood",[1]; 30 min after i.v. injection,0.17±0.02 %ID/g
same,"Radioactivity level, blood",[1]; 60 min after i.v. injection,0.19±0.20 %ID/g
same,"Radioactivity level, brain",[1]; 5 min after i.v. injection,0.05±0.02 %ID/g
same,"Radioactivity level, brain",[1]; 15 min after i.v. injection,0.04±0.04 %ID/g
same,"Radioactivity level, brain",[1]; 30 min after i.v. injection,0.01±0.00 %ID/g
same,"Radioactivity level, brain",[1]; 60 min after i.v. injection,0.03±0.01 %ID/g
same,"Radioactivity level, heart",[1]; 5 min after i.v. injection,0.69±0.09 %ID/g
same,"Radioactivity level, heart",[1]; 15 min after i.v. injection,0.42±0.02 %ID/g
same,"Radioactivity level, heart",[1]; 30 min after i.v. injection,0.28±0.04 %ID/g
same,"Radioactivity level, heart",[1]; 60 min after i.v. injection,0.14±0.04 %ID/g
same,Brain penetration,[1]; judged from brain radioactivity at 30 min,penetrated the brain poorly
same,"Radioactivity level, kidney",[1]; 5 min after i.v. injection,13.25±1.18 %ID/g
same,"Radioactivity level, kidney",[1]; 15 min after i.v. injection,10.96±0.51 %ID/g
same,"Radioactivity level, kidney",[1]; 30 min after i.v. injection,9.89±0.52 %ID/g
same,"Radioactivity level, kidney",[1]; 60 min after i.v. injection,9.23±1.61 %ID/g
same,"Radioactivity level, liver",[1]; 5 min after i.v. injection,29.54±1.57 %ID/g
same,"Radioactivity level, liver",[1]; 15 min after i.v. injection,24.28±3.04 %ID/g
same,"Radioactivity level, liver",[1]; 30 min after i.v. injection,15.54±4.41 %ID/g
same,"Radioactivity level, liver",[1]; 60 min after i.v. injection,8.43±2.71 %ID/g
same,"Radioactivity level, lung",[1]; 5 min after i.v. injection,1.00±0.08 %ID/g
same,"Radioactivity level, lung",[1]; 15 min after i.v. injection,0.79±0.11 %ID/g
same,"Radioactivity level, lung",[1]; 30 min after i.v. injection,0.82±0.13 %ID/g
same,"Radioactivity level, lung",[1]; 60 min after i.v. injection,0.65±0.08 %ID/g
same,"Radioactivity level, muscle",[1]; 5 min after i.v. injection,0.44±0.21 %ID/g
same,"Radioactivity level, muscle",[1]; 15 min after i.v. injection,0.30±0.02 %ID/g
same,"Radioactivity level, muscle",[1]; 30 min after i.v. injection,0.38±0.17 %ID/g
same,"Radioactivity level, muscle",[1]; 60 min after i.v. injection,0.33±0.19 %ID/g
same,"Radioactivity level, pancreas",[1]; 5 min after i.v. injection,1.20±0.18 %ID/g
same,"Radioactivity level, pancreas",[1]; 15 min after i.v. injection,1.27±0.11 %ID/g
same,"Radioactivity level, pancreas",[1]; 30 min after i.v. injection,1.18±0.18 %ID/g
same,"Radioactivity level, pancreas",[1]; 60 min after i.v. injection,1.15±0.13 %ID/g
same,"Radioactivity level, small intestine",[1]; 5 min after i.v. injection,15.78±6.51 %ID/g
same,"Radioactivity level, small intestine",[1]; 15 min after i.v. injection,30.77±8.94 %ID/g
same,"Radioactivity level, small intestine",[1]; 30 min after i.v. injection,27.23±12.69 %ID/g
same,"Radioactivity level, small intestine",[1]; 60 min after i.v. injection,13.52±4.25 %ID/g
same,"Radioactivity level, spleen",[1]; 5 min after i.v. injection,0.79±0.11 %ID/g
same,"Radioactivity level, spleen",[1]; 15 min after i.v. injection,0.55±0.07 %ID/g
same,"Radioactivity level, spleen",[1]; 30 min after i.v. injection,0.37±0.07 %ID/g
same,"Radioactivity level, spleen",[1]; 60 min after i.v. injection,0.23±0.05 %ID/g
same,Change of radioactivity level in brain by pretreatment with elacridar,P-gp and BCRP; brain,not increased
same,Change of radioactivity level in heart by pretreatment with elacridar,P-gp and BCRP; heart,significantly increased
same,Change of radioactivity level in kidney by pretreatment with elacridar,P-gp and BCRP; kidney,significantly decreased
same,Change of radioactivity level in liver by pretreatment with elacridar,P-gp and BCRP; liver,significantly increased
same,Percentage of intact tracer in plasma,"[2]; mouse plasma, 30 min post-injection, radio-HPLC, n=4",19.9 ± 2.4%
same,Metabolism in vivo (mouse plasma),[2]; within 30 min post-injection,rapidly metabolized
